Legend:
GLP1R [1] = biological target: T1, GLP1R (Homo sapiens, UniProt P43220); assay: β-Arrestin-mediated GLP1R internalization assay (PathHunter U2OS cells); assay type: cell-based; set-up: host or cells: PathHunter engineered U2OS cells; conditions: averaged Bmax where applicable, Percentage of Control GLP-1 (7-37), top 10 μM, 180 min
Source text: A similar assay can also be used to assess the extent of signal attenuation due to GLP-1R internalization (the Internalization Assay). In this assay, activated GLP1R Internalization cells were engineered to co-express an untagged GLP1R, Enzyme Acceptor (EA) tagged β-Arrestin, and a ProLink™ (PK) tag localized to the endosomes. Activation of the GLP1R induces β-Arrestin recruitment, which leads to internalization of the Receptor/Arrestin-EA complex in PK-tagged endosomes. This forces complementation of the two β-galactosidase enzyme fragments (EA and PK) to form a functional enzyme that hydrolyzes substrate to generate a chemiluminescent signal.
Frozen cells were quickly thawed and 10 mL of cell plating medium (provided by the kit) was added to thawed cells. Cells were stored in a 37° C. incubator and kept for approximately 48 hours until ready for the assay.
Reference and test compounds were dissolved in 100% DMSO. […] 5 μL of this solution was added to 20 μL cell medium in assay plate for a final top concentration of 10 μM. Plates were incubated at 37° C. for 180 min.
Following 180 min incubation, detection reagents were made up by combining 1 part Galacton Star Substrate with 5 parts Emerald II™ Solution, and 19 parts of PathHunter Cell Assay Buffer, respectively. 12.5 μL detection reagent was added to each well. The plates were then incubated at room temperature for 60 min. Plates were then read on Envision for 0.1 sec/well.
EC50 determinations were made from agonist dose-response curves analyzed with a curve fitting program using a 4-parameter logistic dose response equation.
Target sequence in this assay (P43220 24-463): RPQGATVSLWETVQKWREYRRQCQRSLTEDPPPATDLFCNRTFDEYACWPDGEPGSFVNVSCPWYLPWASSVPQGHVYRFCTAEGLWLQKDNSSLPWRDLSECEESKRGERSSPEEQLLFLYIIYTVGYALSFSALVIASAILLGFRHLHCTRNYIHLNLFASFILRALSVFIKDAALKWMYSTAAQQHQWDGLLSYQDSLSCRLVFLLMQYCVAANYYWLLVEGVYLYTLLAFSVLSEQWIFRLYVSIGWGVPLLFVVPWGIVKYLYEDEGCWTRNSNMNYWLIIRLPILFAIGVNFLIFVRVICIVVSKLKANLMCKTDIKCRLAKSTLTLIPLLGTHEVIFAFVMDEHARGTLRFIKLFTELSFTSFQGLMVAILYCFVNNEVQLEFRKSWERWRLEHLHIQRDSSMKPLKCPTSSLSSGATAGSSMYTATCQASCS
Target sequence in this assay (P32121 whole entry partner, the tested form may be a part): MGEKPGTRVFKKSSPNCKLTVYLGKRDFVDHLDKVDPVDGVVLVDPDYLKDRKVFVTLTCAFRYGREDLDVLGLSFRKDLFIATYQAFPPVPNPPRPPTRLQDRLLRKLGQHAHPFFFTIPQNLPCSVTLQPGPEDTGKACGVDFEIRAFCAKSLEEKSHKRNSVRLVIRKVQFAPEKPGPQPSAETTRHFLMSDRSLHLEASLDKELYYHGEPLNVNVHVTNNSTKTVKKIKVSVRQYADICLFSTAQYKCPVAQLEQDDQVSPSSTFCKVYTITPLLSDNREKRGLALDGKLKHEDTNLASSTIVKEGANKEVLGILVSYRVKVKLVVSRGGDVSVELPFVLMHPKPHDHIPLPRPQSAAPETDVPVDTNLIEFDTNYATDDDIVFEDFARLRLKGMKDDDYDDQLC

GLP1R [2] = biological target: T1, GLP1R; assay: GLP1R cAMP assay (HTRF), HEK293/GLP-1R/CRE/Luc, Clone 4
Target sequence in this assay (P43220 24-463): as the sequence (P43220 24-463) above
Experimental: GLP-1R-mediated agonist activity was determined with a cell-based functional assay utilizing an HTRF (Homogeneous Time-Resolved Fluorescence) cAMP detection kit (cAMP Dynamic 2 Assay Kit; CisBio cat #62AM4PEC) that measures cAMP levels in the cell. The method is a competitive immunoassay between native cAMP produced by the cells and exogenous cAMP labeled with the dye d2. The tracer binding is visualized by a mAb anti-cAMP labeled with Cryptate. The specific signal (i.e., energy transfer) is inversely proportional to the concentration of cAMP in either standard or experimental sample.
The human GLP-1R coding sequence (NCBI Reference Sequence NM_002062) was subcloned into pcDNA3.1+/Hygro vector (Invitrogen) and transfected into HEK293/CRE/Luc parental cell line. A cell line stably expressing the receptor was isolated.
Varying concentrations of each compound to be tested (in DMSO) were diluted in DMSO to obtain 200× compound working solution first and then 50 nl compounds were added to a white 384-well assay plate (Greiner 784075) with ECHO. The final DMSO concentration was 0.5%.
Cells were removed from cryopreservation, re-suspended in 5 mL of Dulbecco's Phosphate Buffered Saline (DPBS-Sigma Cat #D8537) and centrifuged at 900×g for 5 min at 22° C. The cell pellet was then re-suspended in 1 mL of assay buffer [DPBS with 500 μM IBMX (Sigma #15879) and 0.1% BSA (Sigma #A1933). IBMX and BSA were freshly added on the day of assay]. A 10 μL sample of the cell suspension was counted on an Invitrogen Countess II to determine cell viability and cell count per mL. The remaining cell suspension was then adjusted with assay buffer to deliver 1000 viable cells per well using a Matrix Combi Multidrop reagent dispenser. 10 μL cell suspensions were added to each well
of the assay plate which already contains compound. The plate was sealed and incubated at 37° C. with 5% CO2 for 30 minutes.
Following the 30 minute incubation, 5 μL of labeled d2 cAMP and 5 μL of anti-cAMP antibody (both diluted 1:20 in cell lysis buffer; as described in the manufacturer's assay protocol) were added to each well of the assay plate. The plates were then incubated at room temperature and after 60 minutes, changes in the HTRF signal were read with an Envision multi-label plate reader using excitation of 330 nm and emissions of 615 and 665 nm. Raw data were converted to nM cAMP by interpolation from a cAMP standard curve (as described in the manufacturer's assay protocol) and the percent effect was determined relative to a saturating concentration of the full agonist GLP-17-37 (10 nM) included on each plate. EC50 determinations were made from agonist dose-response curves analyzed with a curve fitting program using a 4-parameter logistic dose response equation.

GLP1R [3] = biological target: T1, GLP1R; set-up: Emax: dose or concentration left out as unconfirmed; conditions: for β-arrestin recruitment Bmax (%): partial maximum relative effect at the highest concentration tested (top 10 μM), relative to Bmax of GLP-1 (7-37), PathHunter CHO-K1 GLP1R β-Arrestin cells; for Emax: CHO-K1, […], read-out: β-arrestin recruitment Bmax (%)
Target sequence in this assay (P43220 24-463): as above
Target sequence in this assay (P32121 whole entry partner, the tested form may be a part): as the sequence (P32121 whole entry partner, the tested form may be a part) above

SMILES	β-arrestin internalization Bmax (POC) (GLP1R [1])	EC50 (GLP1R [2]) [nM]	β-arrestin recruitment Bmax (%) (GLP1R [3])	Emax (GLP1R [3]) [%]
N#Cc1ccc(COc2cccc(-c3ccc(Cc4nc5ccc(C(=O)O)cc5n4C[C@@H]4CCO4)cc3F)n2)c(F)c1 [Compound 75, (S)-2-(4-(6-(4-cyano-2-fluorobenzyloxy)pyridin-2-yl)-3-fluorobenzyl)-1-(oxetan-2-ylmethyl)-1H-benzo[d]imidazole-6-carboxylic acid]	20.8 ± 10.2	< 15	–	30.4 ± 1.15
O=C(O)c1ccc2nc(Cc3ccc(-c4cccc(OCc5ccc(Cl)cc5F)n4)c(F)c3)n(C[C@@H]3CCO3)c2n1 [Compound 102, (S)-2-(4-(6-((4-chloro-2-fluorobenzyl)oxy)pyridin-2-yl)-3-fluorobenzyl)-3-(oxetan-2-ylmethyl)-3H-imidazo[4,5-b]pyridine-5-carboxylic acid]	–	< 15	–	28.3
O=C(O)c1ccc2nc(CN3CC=C(c4csc(OCc5ccc(Cl)cc5F)n4)CC3)n(C[C@@H]3CCO3)c2c1 [Compound 247, (S)-2-((4-(2-((4-chloro-2-fluorobenzyl)oxy)thiazol-4-yl)-3,6-dihydropyridin-1(2H)-yl)methyl)-1-(oxetan-2-ylmethyl)-1H-benzo[d]imidazole-6-carboxylic acid]	26.6	< 15	–	–
N#Cc1ccc(COc2nc(-c3ccc(Cc4nc5ccc(C(=O)O)nc5n4C[C@@H]4CCO4)c(F)c3)ccc2F)c(F)c1 [Compound 284, (S)-2-(4-(6-(4-cyano-2-fluorobenzyloxy)-5-fluoropyridin-2-yl)-2-fluorobenzyl)-3-(oxetan-2-ylmethyl)-3H-imidazo[4,5-b]pyridine-5-carboxylic acid]	–	< 15	–	25.5
O=C(O)c1ccc2nc(Cc3ccc(-c4ncc(F)c(OCc5ccc(F)cc5F)n4)cc3F)n(C[C@@H]3CCO3)c2n1 [Compound 285, (S)-2-(4-(4-((2,4-difluorobenzyl)oxy)-5-fluoropyrimidin-2-yl)-2-fluorobenzyl)-3-(oxetan-2-ylmethyl)-3H-imidazo[4,5-b]pyridine-5-carboxylic acid]	–	< 15	–	24
N#Cc1ccc(COc2cccc(-c3ccc(Cc4nc5ccc(C(=O)O)nc5n4C[C@@H]4CCO4)cc3F)n2)c(F)c1 [Compound 293, (S)-2-(4-(6-((4-cyano-2-fluorobenzyl)oxy)pyridin-2-yl)-3-fluorobenzyl)-3-(oxetan-2-ylmethyl)-3H-imidazo[4,5-b]pyridine-5-carboxylic acid]	–	< 15	–	32
O=C(O)c1ccc2nc(Cn3ccc(-c4cccc(OCc5ccc(Cl)cc5F)n4)cc3=O)n(C[C@@H]3CCO3)c2c1 [Compound 323, (S)-2-((6-((4-chloro-2-fluorobenzyl)oxy)-2′-oxo-[2,4′-bipyridin]-1′(2′H)-yl)methyl)-1-(oxetan-2-ylmethyl)-1H-benzo[d]imidazole-6-carboxylic acid]	–	< 15	19.4	–
CC1(c2ccc(Cl)cc2F)Oc2cccc(C3=CCN(Cc4nc5ccc(C(=O)O)cc5n4C[C@@H]4CCO4)CC3)c2O1 (stereo partly drawn) [Compound 330, 2-((4-(2-(4-chloro-2-fluorophenyl)-2-methylbenzo[d][1,3]dioxol-4-yl)-5,6-dihydropyridin-1(2H)-yl)methyl)-1-((S)-oxetan-2-ylmethyl)-1H-benzo[d]imidazole-6-carboxylic acid]	–	< 15	–	–
O=C(O)c1ccc2nc(CN3CC=C(c4scnc4OCc4ccc(Cl)cc4F)CC3)n(C[C@@H]3CCO3)c2c1 [Compound 331, (S)-2-((4-(4-((4-chloro-2-fluorobenzyl)oxy)thiazol-5-yl)-3,6-dihydropyridin-1(2H)-yl)methyl)-1-(oxetan-2-ylmethyl)-1H-benzo[d]imidazole-6-carboxylic acid]	–	< 15	–	17.9
O=C(O)c1ccc2nc(CN3CC=C(c4csnc4OCc4ccc(Cl)cc4F)CC3)n(C[C@@H]3CCO3)c2c1 [Compound 332, (S)-2-((4-(3-(4-chloro-2-fluorobenzyloxy)isothiazol-4-yl)-5,6-dihydropyridin-(2H)-yl)methyl)-1-(oxetan-2-ylmethyl)-1H-benzo[d]imidazole-6-carboxylic acid]	–	< 15	–	14.5
N#Cc1ccc(COc2ncccc2C2=CCN(Cc3nc4ccc(C(=O)O)cc4n3C[C@@H]3CCO3)CC2)c(F)c1 [Compound 333, (S)-2-((4-(2-(4-cyano-2-fluorobenzyloxy)pyridin-3-yl)-5,6-dihydropyridin-1(2H)-yl)methyl)-1-(oxetan-2-ylmethyl)-1H-benzo[d]imidazole-6-carboxylic acid]	–	15 to 150	–	9.75
CC1(c2ccc(C#N)cc2F)Oc2cccc(C3=CCN(Cc4nc5ccc(C(=O)O)cc5n4C[C@@H]4CCO4)CC3)c2O1 (stereo partly drawn) [Compound 334, 2-((4-(2-(4-cyano-2-fluorophenyl)-2-methylbenzo[d][1,3]dioxol-4-yl)-3,6-dihydropyridin-1(2H)-yl)methyl)-1-(((S)-oxetan-2-yl)methyl)-1H-benzo[d]imidazole-6-carboxylic acid]	–	< 15	–	26.6

The remaining lines, values ahead:

β-arrestin internalization Bmax (POC) (GLP1R [1])	EC50 (GLP1R [2]) [nM]	β-arrestin recruitment Bmax (%) (GLP1R [3])	Emax (GLP1R [3]) [%]	SMILES
17.0	< 15	32.1	–	O=C(O)c1ccc2nc(Cc3ccc(-c4cccc(OCc5ccc(Cl)cc5F)n4)c(F)c3)n(C[C@@H]3CCO3)c2c1 [Compound 74, (S)-2-(4-(6-((4-chloro-2-fluorobenzyl)oxy)pyridin-2-yl)-3-fluorobenzyl)-1-(oxetan-2-ylmethyl)-1H-benzo[d]imidazole-6-carboxylic acid]
21.6	< 15	–	25.1	O=C(O)c1ccc2nc(Cc3ccc(-c4cccc(OCc5ccc(Cl)cc5F)c4)c(F)c3)n(C[C@@H]3CCO3)c2c1 [Compound 76, (S)-2-((3′-((4-chloro-2-fluorobenzyl)oxy)-2-fluoro-[1,1′-biphenyl]-4-yl)methyl)-1-(oxetan-2-ylmethyl)-1H-benzo[d]imidazole-6-carboxylic acid]
22.5	< 15	–	39.4	O=C(O)c1ccc2nc(Cc3ccc(-c4nc(OCc5ccc(Cl)cc5F)c(F)cc4F)c(F)c3)n(C[C@@H]3CCO3)c2c1 [Compound 77, (S)-2-(4-(6-((4-chloro-2-fluorobenzyl)oxy)-3,5-difluoropyridin-2-yl)-3-fluorobenzyl)-1-(oxetan-2-ylmethyl)-1H-benzo[d]imidazole-6-carboxylic acid]
7.49	< 15	–	22.7	O=C(O)c1ccc2nc(Cc3ccc(-c4ccc(F)c(OCc5ccc(Cl)cc5F)c4)c(F)c3)n(C[C@@H]3CCO3)c2c1 [Compound 78, (S)-2-((3′-((4-chloro-2-fluorobenzyl)oxy)-2,4′-difluoro-[1,1′-biphenyl]-4-yl)methyl)-1-(oxetan-2-ylmethyl)-1H-benzo[d]imidazole-6-carboxylic acid]
–	< 15	–	31.4	O=C(O)c1ccc2nc(Cc3cc(F)c(-c4cccc(OCc5ccc(Cl)cc5F)n4)cc3F)n(C[C@@H]3CCO3)c2c1 [Compound 257, (S)-2-(4-(6-((4-chloro-2-fluorobenzyl)oxy)pyridin-2-yl)-2,5-difluorobenzyl)-1-(oxetan-2-ylmethyl)-1H-benzo[d]imidazole-6-carboxylic acid]
–	< 15	–	28.5	N#Cc1ccc(COc2cccc(-c3cc(F)c(Cc4nc5ccc(C(=O)O)cc5n4C[C@@H]4CCO4)cc3F)n2)c(F)c1 [Compound 271, (S)-2-(4-(6-((4-cyano-2-fluorobenzyl)oxy)pyridin-2-yl)-2,5-difluorobenzyl)-1-(oxetan-2-ylmethyl)-1H-benzo[d]imidazole-6-carboxylic acid]
–	< 15	–	29.6	N#Cc1ccc(COc2nc(-c3ccc(Cc4nc5ccc(C(=O)O)nc5n4C[C@@H]4CCO4)cc3F)ccc2F)c(F)c1 [Compound 289, (S)-2-(4-(6-((4-cyano-2-fluorobenzyl)oxy)-5-fluoropyridin-2-yl)-3-fluorobenzyl)-3-(oxetan-2-ylmethyl)-3H-imidazo[4,5-b]pyridine-5-carboxylic acid]
–	< 15	–	31.8	O=C(O)c1ccc2nc(Cc3ccc(-c4ccc(F)c(OCc5ccc(Cl)cc5F)n4)c(F)c3)n(C[C@@H]3CCO3)c2n1 [Compound 305, (S)-2-(4-(6-((4-chloro-2-fluorobenzyl)oxy)-5-fluoropyridin-2-yl)-3-fluorobenzyl)-3-(oxetan-2-ylmethyl)-3H-imidazo[4,5-b]pyridine-5-carboxylic acid]

— US10954221B2, “GLP-1R agonists and uses thereof” (QILU REGOR THERAPEUTICS INC., priority 2019, dated 2021)
